# Laboratory results as given in publication PMC8848500 (Bioorganic & medicinal chemistry, 2020).
# Target: T1, human neutrophil elastase (HNE) (Homo sapiens, UniProt P08246)
# T1 sequence (P08246 30-267): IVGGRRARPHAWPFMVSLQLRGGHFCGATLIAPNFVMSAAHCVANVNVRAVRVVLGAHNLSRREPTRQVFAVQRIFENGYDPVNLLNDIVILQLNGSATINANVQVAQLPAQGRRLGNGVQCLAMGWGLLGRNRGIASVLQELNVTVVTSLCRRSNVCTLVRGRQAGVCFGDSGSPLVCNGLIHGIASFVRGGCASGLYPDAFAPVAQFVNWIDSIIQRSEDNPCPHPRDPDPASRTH
# Experiment: HNE inhibition assay
# Assay type: biochemical
# Conditions: not given
Structure (SMILES),HNE inhibitory activity (in words),IC50 [µM]
"O=C(C1CC1)n1ccc2nccnc21 [Compound 15b, Cyclopropyl(5H-pyrrolo[2,3-b]pyrazin-5-yl)methanone]",reduced activity by two orders of magnitude,–
"CC(=O)n1nc(NC(=O)c2cccc(C)c2)c2cccnc21 [Compound 9, N-(1-Acetyl-1H-pyrazolo[3,4-b]pyridin-3-yl)-3-methylbenzamide]",–,25.2 ± 1.3
"COc1cccc(CNC(=O)c2cnc3c(Cl)c(C(C)(C)C)nn3c2C)c1 [Compound 22f, 2-(tert-Butyl)-3-chloro-N-(3-methoxybenzyl)-7-methylpyrazolo[1,5-a]pyrimidine-6-carboxamide]",–,> 50
"COc1cccc(CNC(=O)c2cnc3cc(C(C)(C)C)nn3c2C)c1 [Compound 22e, 2-(tert-Butyl)-N-(3-methoxybenzyl)-7-methylpyrazolo[1,5-a]pyrimidine-6-carboxamide]",–,> 50
"O=C(Nc1nn(C(=O)C2CC2)c2ncccc12)C1CC1 [Compound 7, N-(1-(Cyclopropanecarbonyl)-1H-pyrazolo[3,4-b]pyridin-3-yl)cyclopropanecarboxamide]",–,1.5 ± 0.14
"N#Cc1nn(C(=O)c2ccccc2)c2ncccc12 [Compound 2d, 1-Benzoyl-1H-pyrazolo[3,4-b]pyridine-3-carbonitrile]",–,0.14
"Cc1cccc(C(=O)n2cc(C#N)c3ccncc32)c1 [Compound 13e, 1-(3-Methylbenzoyl)-1H-pyrrolo[2,3-c]pyridine-3-carbonitrile]",reduced activity compared to the reference compounds B and C,–
"COc1cccc(NC(=O)c2cnc3c(Cl)c(C(C)(C)C)nn3c2C)c1 [Compound 22c, 2-(tert-Butyl)-3-chloro-N-(3-methoxyphenyl)-7-methylpyrazolo[1,5-a]pyrimidine-6-carboxamide]",–,> 50
"N#Cc1cn(C(=O)C2CC2)c2cnccc12 [Compound 13f, 1-(Cyclopropanecarbonyl)-1H-pyrrolo[2,3-c]pyridine-3-carbonitrile]",reduced activity compared to the reference compounds B and C,–
"N#Cc1nn(Cc2ccccc2)c2ncccc12 [Compound 2c, 1-Benzyl-1H-pyrazolo[3,4-b]pyridine-3-carbonitrile]",complete loss of HNE inhibitory activity,> 50
"N#Cc1nn(C(=O)C2CCCCC2)c2ncccc12 [Compound 2i, 1-(Cyclohexanecarbonyl)-1H-pyrazolo[3,4-b]pyridine-3-carbonitrile]",loss of activity,–
"COc1cccc(NC(=O)c2cnc3cc(C(C)(C)C)nn3c2C)c1 [Compound 22b, 2-(tert-Butyl)-N-(3-methoxyphenyl)-7-methylpyrazolo[1,5-a]pyrimidine-6-carboxamide]",–,> 50
"COc1cccc(CNC(=O)c2cnc3cc(C)nn3c2C)c1 [Compound 22d, N-(3-Methoxybenzyl)-2,7-dimethylpyrazolo[1,5-a]pyrimidine-6-carboxamide]",–,> 50
"COc1cccc(NC(=O)c2cnc3cc(C)nn3c2C)c1 [Compound 22a, N-(3-Methoxyphenyl)-2,7-dimethylpyrazolo[1,5-a]pyrimidine-6-carboxamide]",–,> 50

# Same assay, conditions: HNE IC50 versus reference A
row,Structure (SMILES),fold less potent than A [fold]
1,"Cc1cccc(C(=O)n2nc(C#N)c3cccnc32)c1 [Compound 2e, 1-(3-Methylbenzoyl)-1H-pyrazolo[3,4-b]pyridine-3-carbonitrile]",47

# Tested on: not listed separately
# Experiment: Chemical stability at room temperature
# Assay type: physicochemical
# Conditions: conversion to precursors 14 and 18
row,Structure (SMILES),chemical stability
1,"Cc1cccc(C(=O)n2cc(C#N)c3nccnc32)c1 [Compound 19a, 5-(3-Methylbenzoyl)-5H-pyrrolo[2,3-b]pyrazine-7-carbonitrile]",not chemically stable
2,"Cc1cccc(C(=O)n2ccc3nccnc32)c1 [Compound 15a, (5H-Pyrrolo[2,3-b]pyrazin-5-yl)(m-tolyl)methanone]",not chemically stable
